Test results reported in publication PMC9511441, “Semisynthetic teicoplanin derivatives with dual antimicrobial activity against SARS-CoV-2 and multiresistant bacteria” (Scientific Reports, 2022).
Where two headings read alike, the source gives them in different places.

Columns and labels:
[1] = tested on: E. faecalis; test: MIC, broth microdilution; assay type: cell-based; details: Enterococcus faecalis
Text: (§1) We determined the minimal inhibitory concentrations (MIC) of the teicoplanin conjugates for a large panel of Gram-positive bacterial strains, using vancomycin, unmodified teicoplanin, dalbavancin and oritavancin as reference compounds. […] The bacterial strains (see Suppl. Table S5 for all details) were selected to achieve maximum diversity of multidrug-resistance and include strains with known mechanisms of resistance to glycopeptides in clinical use. The S. epidermidis and S. haemolyticus strains resistant to dalbavancin and oritavancin were obtained in vitro from clinical isolates sensitive to the glycopeptide antibiotics.

[2] = tested on: S.pyogenes; test: MIC, broth microdilution; assay type: cell-based; details: Streptococcus pyogenes
Text: as §1

[3] = tested on: S. haemolyticus; test: MIC, broth microdilution; assay type: cell-based; details: Staphylococcus haemolyticus
Text: as §1

[4] = tested on: S. aureus; test: MIC, broth microdilution; assay type: cell-based; details: Staphylococcus aureus
Text: as §1

[5] = tested on: E. faecium; test: microbe, parasite or virus in culture; assay type: cell-based; details: Enterococcus faecium
Text: as §1

[6] = tested on: S. epidermidis; test: microbe, parasite or virus in culture; assay type: cell-based; details: Staphylococcus epidermidis
Text: as §1

[7] = tested on: S. aureus ATCC29213; test: Fluorescent competition assay, release of fluorescent vancomycin; details: cells saturated with FL-VAN, Fig. 7 left panel
[8] = in vitro; details: human
[9] = tested on: SARS-CoV-2; test: microbe, parasite or virus in culture; assay type: cell-based; details: Severe acute respiratory syndrome coronavirus 2, Vero C1008, 72 h; Vero E6 cells, three days, XTT; read-out: EC50, CPE reduction, SARS-CoV-2 in Vero E6 cells
[10] = tested on: SARS-CoV-2; test: microbe, parasite or virus in culture; assay type: cell-based; details: Severe acute respiratory syndrome coronavirus 2, 72 h; Calu-3 cells, three days, XTT; read-out: EC50, CPE reduction, SARS-CoV-2 in Calu-3 cells
[11] = Cytotoxicity in mock-infected VeroE6 cells (XTT); assay type: cell-based, African green monkey; details: African green monkey; mock-infected Vero E6 cells, three days, XTT
[12] = tested on: HCoV-229E; test: CPE reduction assay, HCoV-229E in HEL cells; assay type: cell-based; details: Human coronavirus 229E, MTS, mean of 2–3 tests
[13] = Cytotoxicity in mock-infected HEL cells (MTS); assay type: cell-based, human; details: human

CN[C@H](CC(C)C)C(=O)N[C@H]1C(=O)N[C@@H](CC(N)=O)C(=O)N[C@H]2C(=O)N[C@H]3C(=O)N[C@H](C(=O)N[C@H](C(=O)O)c4cc(O)cc(O)c4-c4cc3ccc4O)[C@H](O[C@H]3C[C@](C)(N)[C@@H](O)[C@H](C)O3)c3ccc(c(Cl)c3)Oc3cc2cc(c3O[C@@H]2O[C@H](CO)[C@@H](O)[C@H](O)[C@H]2O[C@H]2C[C@](C)(NCc3ccc(-c4ccc(Cl)cc4)cc3)[C@@H](O)[C@H](C)O2)Oc2ccc(cc2Cl)[C@H]1O [ORI, oritavancin, reference compound]
4 µg/mL: MIC ([6]; read-out: MIC value, S.epidermidis ORI_R1, mecA)
0.25 µg/mL: MIC ([3]; S.haemolyticus DALB_R1, mecA, read-out: MIC value) | MIC ([3]; S.haemolyticus DALB_R2, mecA, read-out: MIC value) | MIC ([3]; S.haemolyticus DALB_R3, mecA, read-out: MIC value) | MIC ([4]; MRSA, read-out: MIC value, S. aureus Mu50, MRSA) | MIC ([5]; read-out: MIC value, E.faecium E1114, VAN,TEI,LNZ/VanA)
1.2 µg/mL: MIC ([6]; read-out: Average MIC value, S. epidermidis mecA, 6 strains)
0.12 µg/mL: MIC ([5]; read-out: Average MIC value, E. faecium VAN^R,TEI^R/VanA, 8 strains)
less pronounced: Outcompeting fluorescent vancomycin from S. aureus (in words) [7]
0.125 µg/mL: MIC ([1]; read-out: Average MIC value, E. faecalis VAN^R,TEI^R/VanA, 1 strain) | MIC ([1]; read-out: MIC value, E.faecalis V583, VAN,TEI/VanA) | MIC ([2]; read-out: MIC value, S.pyogenes H232) | MIC ([3]; S.haemolyticus DALB_R5, mecA, read-out: MIC value) | MIC ([4]; ATCC 29213 / MSSA, read-out: MIC value, S. aureus ATCC29213, MSSA) | MIC ([4]; MRSA, read-out: MIC value, S. aureus 73OL, MRSA) | MIC ([4]; MRSA, read-out: MIC value, S. aureus 214OL, MRSA) | MIC ([4]; MRSA, read-out: MIC value, S. aureus 1041OL, MRSA) | MIC ([4]; MRSA, read-out: MIC value, S. aureus A6918, MRSA) | MIC ([4]; MRSA, read-out: MIC value, S. aureus A6919, MRSA) | MIC ([4]; MRSA, read-out: MIC value, S. aureus N315, MRSA) | MIC ([5]; read-out: MIC value, E.faecium E335, VAN,TEI,LNZ/VanA) | MIC ([5]; read-out: MIC value, E.faecium E832, VAN,TEI,LNZ/VanA) | MIC ([5]; read-out: MIC value, E.faecium E1131, VAN,TEI,LNZ/VanA) | MIC ([5]; read-out: MIC value, E.faecium E1132, VAN,TEI,LNZ/VanA) | MIC ([6]; read-out: MIC value, S.epidermidis TEI_R1, mecA) | MIC ([6]; read-out: MIC value, S.epidermidis TEI_R2, mecA)
0.078 µg/mL: MIC ([4]; MSSA, read-out: Average MIC value, S. aureus MSSA, 4 strains)
0.0625 µg/mL: MIC ([1]; read-out: Average MIC value, E. faecalis VAN^S, TEI^S, 2 strains) | MIC ([1]; read-out: MIC value, E.faecalis JH2-2) | MIC ([1]; read-out: MIC value, E.faecalis OG1RF) | MIC ([2]; read-out: MIC value, S.pyogenes H550) | MIC ([2]; read-out: MIC value, S.pyogenes H578) | MIC ([3]; S.haemolyticus DALB_R4, mecA, read-out: MIC value) | MIC ([4]; MRSA / USA300, read-out: MIC value, S. aureus USA300, CA-MRSA) | MIC ([4]; MRSA, read-out: Average MIC value, S. aureus CA-MRSA, 1 strain) | MIC ([4]; MSSA / NEWMAN, read-out: MIC value, S. aureus Newman, MSSA) | MIC ([4]; MSSA, read-out: MIC value, S. aureus MSSA476, MSSA) | MIC ([4]; MSSA, read-out: MIC value, S. aureus SA564, MSSA) | MIC ([5]; read-out: Average MIC value, E. faecium VAN^S, TEI^S, 1 strain) | MIC ([5]; read-out: MIC value, E.faecium E355, VAN,TEI,LNZ/VanA) | MIC ([5]; read-out: MIC value, E.faecium E854, VAN,TEI,LNZ/VanA) | MIC ([5]; read-out: MIC value, E.faecium E859, VAN,TEI,LNZ/VanA) | MIC ([5]; read-out: MIC value, E.faecium TX0016)
0.24 µg/mL: MIC ([3]; S. haemolyticus mecA, 6 strains, read-out: Average MIC value)
0.5 µg/mL: MIC ([3]; S.haemolyticus ORI_R1, mecA, read-out: MIC value) | MIC ([6]; read-out: MIC value, S.epidermidis ORI_R2, mecA) | MIC ([6]; read-out: MIC value, S.epidermidis ORI_R4, mecA)
0.14 µg/mL: MIC ([4]; MRSA, read-out: Average MIC value, S. aureus MRSA, 7 strains)
2 µg/mL: MIC ([6]; read-out: MIC value, S.epidermidis ORI_R3, mecA)

CCC(CC)COC(=O)[C@H](C)N[P@](=O)(OC[C@H]1O[C@@](C#N)(c2ccc3c(N)ncnn23)[C@H](O)[C@@H]1O)Oc1ccccc1 [Remdesivir, remdesivir, reference compound]
300 ± 30 nM: EC50 [10]
> 100 µM: CC50 [11]
> 50 µM: CC50 [8]
2500 ± 200 nM: EC50 [9]

N#C[C@@]1(c2ccc3c(N)ncnn23)O[C@H](CO)[C@@H](O)[C@H]1O [GS-441524, reference compound]
3000 nM: EC50 [12]
> 40 µM: CC50 at 5 days [13]
